Test results as given in EP2444396A1, “PHOTOPROTECTIVE COMPOSITION” (Apoteknos Para La Piel, S.L., priority 2009, dated 2010).
Values after ≈ are worked out from the molar mass of the structure shown. Marks after values point to notes of the source that are not given here.

Experiments:
[1] = UV spectrum: wavelengths of maximum absorption and absorbance (Cecil 2021 UV-Visible Spectrophotometer); format: physicochemical
[2] = Solubility in organic solvents; format: physicochemical; details: methanol, organic solvent or mixture, thermodynamic from solid; MeOH
[3] = tested on: MCF-7 breast cancer cell line; experiment: E-Screen cell proliferation test; format: cell-based, human; details: MCF-7 cells; for Proliferative effect (PE) Mean: 144 hours, negative control = 1
Description: The E-Screen proliferation test is based on the use of MCF-7 breast cancer cell line. The MCF-7 cells [which endogenously expressed the estrogen receptor alpha (ERα)], respond to the treatment with estradiol increasing its proliferative rate, synthesizing new proteins and transcribing certain specific genes. […] The test compares the number of cells or the cell proliferation obtained after 6 days of culture. The cells grow in culture medium supplemented with human serum lacking of estrogens, in the presence and/or absence of estradiol as well as of the chemical compounds suspected of having estrogenic activity. The E-Screen test was performed following the methodology previously described by Soto et al. ["An in culture bioassay to assess the estrogenicity of xenobiotics. […] Health Perspect. 103:844-850; 1995]. […] The assay was ended after 144 hours of subculture (exponential phase) after drawing out the medium and fixing the cells for the application of sulforhodamine-B technique. Finally, the cell growth for each experimental group is related to the growth obtained for the negative control (absence of hormone) and with respect to estradiol (positive control). Once the E-Screen test is performed, the maximum cell proliferation rate induced by the compound also known as proliferative effect (PE) was established by calculating the ratio existing between the maximum proliferation rate obtained for the compound and the proliferation rate of the negative control. The proliferation data corresponding with the successive dilutions of the compound were transformed after the application of the correction factor for the dilution of each experimental point, the arithmetic mean of the data obtained being calculated. Another parameter is the relative proliferative efficiency (RPE). […] In this assay, the estrogenicity E-Screen test commonly used to identify the hormonal activity of compounds interacting specifically with the estrogen receptor alpha (ERα), has been used. The assays were performed in triplicate for each concentration (range: 300-0.003 µg/ml) in at least three independent experiments.

[4] = tested on: Erythema induced by UVB radiation in mouse; experiment: Photoprotection: erythema induced by UVB radiation in mouse skin; format: in vivo; parameters: key to Erythema induced by UVB radiation in mouse: presence (+); absence (-); details: 0.5% gel topical, about 2.5 kJ/m^2 UVB, 24 hours after exposure; for % Protection: percentage of protected animals
Description: The effect of p-nitrolophine and m-nitrolophine on erythema due to exposing the mouse skin to an irradiation source at maximum in the UVB region has been studied in these assays. The results obtained have been compared with the effect of 4-methylbenzylidene camphor (P5000) a substance considered as a UVB solar filter and with the effect of butyl methoxydibenzoylmethane (P1789) an UVA type filter, both products being commonly used in antisolar cosmetics.
35 male mice weighing more than 20 grams have been used. After receiving them, the animals were acclimated for 7 days at the place where the assays were preformed, they were being placed in a cage with controlled temperature (22°C), with relative humidity between 50% and 75%, replacing fresh filtered air approximately 10 times per hour and with 12 h light/dark cycles (7.00 - 19.00 light and from 19.00 to 7.00 dark). For this period and during the experimental period, the animals were fed ad libitum with standard diet for rodents and running water as drink.
The animals were randomly distributed into 4 experimental groups according to Table 7. The products to be tested were directly used, applying them in the form of a gel on an area of the skin such that each animal form its own control.
The test was performed following the method described by Winder et al. ["A study of Pharmacological influences on ultraviolet erythema in guinea pigs". Arch. Int Pharmacodyn, 116:261-292; 1958] and by other authors [Wendy et al. "The local antinociceptive and topical antiinflamatory effects of propyl gallate in rodents". Br. J. Pharmacol, 58:573 -581; 1976; Katiyar et al. "Protective Effects of Silymarin Against Photocarcinogenesis in a Mouse Skin Model". J Natl Cancer Inst 89:556-65; 1997] with slight modifications. The day […] the assay, as much hair as possible were removed from the animals by applying a layer of commercial hair-removing cream to remove all the trace of hair and to leave the skin of the back completely bare. The rest of the hair-removing cream were removed by means of washing and rinsing with running water and the animals were the returned to their corresponding cages where they remained until the following day.
On the day of the assay, the substances to be assayed were blindly applied on the back of the previously labelled animals following a random pattern (randomized). After applying the corresponding treatments, the animals were placed and pinned to the presentation platform of the equipment. The animals were then placed 8 cm from an ultraviolet light source of 4*40w with 313 nm of fundamental emission and a range comprised approximately between 290 and 350 nm and with an anti-UVC filter. The emission spectrum of said light source is depicted in Figure 1.
The exposure was maintained until all the animals have received an approximate total dose of 2.5 kJ/m^2. The dose of irradiation applied was determined by means of a ultraviolet light detector, the response curve of which is shown in Figure 2.
Twenty four hours after ending the exposure, the back of the animals was photographed and they were returned to their cages. The evaluation of erythema was performed by means of a positive/negative criterion, the percentage of protected animals being obtained. The statistic significance of the difference was evaluated by means of the non-parametric Fisher Test.

[5] = Absorption spectrum in methanol (195 - 400 nm); format: physicochemical; details: peak wavelength, 10 mg/ml
Method: In order to determine the absorption spectrum, a solution of 10 mg/ml of methanol was prepared from each of the substances. The methanol in turn was used to adjust the zero absorbance in each of the wavelengths in the range of 195 - 400 nm.

[6] = Photostability evaluation (irradiation in MeOH, TLC analysis); format: physicochemical; details: saturated solution in 200 mL MeOH, 2 hours of irradiation, isolated by column chromatography
Method: All the irradiations preformed in the photostability studies were carried out in an ACE 7840 photoreactor using a 450W power ACE 7825 lamp.
The solvent used in the photostability test was methanol [MeOH] (ppa) (250 mL), using a concentration of […] of p-nitrolophine. The solution was irradiated for 2 hours, samples being taken at 10 minutes, 20 minutes, 1 hour and 2 hours, and being dried in a rotating evaporator. Each sample was analyzed by thin layer chromatography (TLC in Silica gel) using petroleum ether:ethyl acetate (4:1) as eluent. The chromatography plates were viewed under a 254 nm lamp and a 366 nm lamp, as well as by means of simultaneous viewing under both lamps (254 and 366 nm).
Specifically, three photoproducts (three blots) could be determined, which were isolated by preparative TLC.
A saturated solution of m-nitrolophine in MeOH was prepared to perform the study since the solubility in this solvent is low (approximately 0.2 mg/mL). Briefly, an amount of m-nitrolophine sufficient to ensure the saturation in 200 mL of MeOH throughout the night was left stirring. The solution was filtered and irradiated for 2 hours, samples of 10 mL being taken at 10 minutes, 20 minutes, 1 hour and 2 hours, and being dried in rotating evaporator. […]

[7] = tested on: Erythema induced by UVB radiation in mouse; experiment: Photoprotection: erythema induced by UVB radiation in mouse skin; format: in vivo; details: intensity of erythema in application area versus surrounding non treated area (subjective criterion); 0.5% gel topical; listed as m-nitrotophine

O=[N+]([O-])c1cccc(-c2nc(-c3ccccc3)c(-c3ccccc3)[nH]2)c1 [m-nitrolophine, 2-(3-nitrophenyl)-4,5-diphenyl-1H-imidazole]
UV spectrum A (a.u) ([1]; absorbance at the maximum of the same line): 1.194 a.u | UV spectrum λ (nm) ([1]; wavelengths of the maximum absorption): 309.0 nm | solubility [2]: ~200 µg/mL (≈ 586 µM) | estrogenicity ([3]; E-Screen, conclusion in words): not an estrogenic compound for the receptor alpha | Proliferative effect (PE) Mean ([3]; 3x10^-1 mg/ml): 1.45 | Proliferative effect (PE) Mean ([3]; 3x10^-2 mg/ml): 1.30 | Proliferative effect (PE) Mean ([3]; 3x10^-3 mg/ml): 1.19 | Proliferative effect (PE) Mean ([3]; 3x10^-4 mg/ml): 1.10 | Proliferative effect (PE) Mean ([3]; 3x10^-5 mg/ml): 1.08 | Proliferative effect (PE) Mean ([3]; 3x10^-6 mg/ml): 1.06 | proliferative effect ([3]; all the tested concentrations range (300-0.003 µg/ml)): lower than 1.5 | Erythema induced by UVB radiation in mouse ([4]; individual animals No. 1-10): - | % Protection [4]: 100% | % Protection ([4]; listed as m-nitrotophine): 100%* | maximum absorption [5]: 309 nm | photodecomposition product [6]: 5.7 mg | % Suppression [7]: 60 - 80%*
